Data as given in patent US20040038904A1, “Method of treating multiple sclerosis” (priority 2002, published 2004).

System: progressive multiple sclerosis
Test: Monitoring of progress of treatment (clinical condition) in patient with progressive multiple sclerosis
Assay type: in vivo, human
Settings: epirubicin 75-100 mg iv with dexrazoxane, 12-week cycle, first and second treatment cycles
Text: Anthracyclines of the present invention can be administered in cycles over 7-week to 15-week intervals. Generally, treatment with anthracyclines is started with a 12-week cycle and the patient is monitored for progress of the treatment during the course of treatment. If the condition of the patient deteriorates between week 8 and 12 of the cycle, the treatment cycle should be shortened to, for example, 9 weeks or shorter.
A patient is diagnosed with progressive multiple sclerosis. Anthracycline therapy with epirubicin 75 mg by intravenous injection is initiated on a 12-week cycle. Prior to the administration of the anthracycline, the patient is pretreated with dexrazoxane at 750 mg by intravenous injection. The patient is monitored for progress of treatment and hematologic and non-hematologic toxicity throughout the course of treatment.

## COc1cccc2c1C(=O)c1c(O)c3c(c(O)c1C2=O)C[C@@](O)(C(=O)CO)C[C@@H]3O[C@H]1C[C@H](N)[C@@H](O)[C@H](C)O1 [epirubicin]
  patient's clinical condition during treatment cycle: deteriorates between weeks 9 and 12
